One block for each compound: values may come before it.
What was measured:
[1] = system: MDA-MB-231 cells; test: MTS cell viability assay, MDA-MB-231 cells, 72 h; assay type: cell-based, human; settings: Homo sapiens, MDA-MB-231, 72 h, 25 µM, % of viable cells compared to untreated cells 100%
Procedure: (§1) Upon completion of their syntheses, the in vitro activity of quinolone derivatives 3a–f, 4a–h, and 5a,b was evaluated by their growth-inhibitory potency in three cancer cell lines. At first, the viability of the synthesized compounds was examined with the MDA-MB-231 […] breast cancer cell line at concentrations of 10 µM, 15 µM, and 25 µM. Prostate cancer PC-3 cells and human fetal lung fibroblast MRC-5 cell lines were also subjected to this series of compounds at a unique concentration of 15 µM.
(§2) MDA-MB-231 cells were grown in L15 supplemented with 15% serum, 2 mM glutamine, and 22 mM sodium bicarbonate in the presence of Penicillin/Streptomycin antibiotic mixture. PC-3 cells were cultured in RPMI 1640 supplemented with 10% serum and 2 mM glutamine in the presence of Penicillin/Streptomycin antibiotic mixture. MRC-5 cells were cultured in EMEM supplemented with 10% serum and 2 mM glutamine in the presence of Penicillin/Streptomycin antibiotic mixture (Reagents were purchased from Sigma Aldrich, Saint-Quentin-Fallavier, France).
(§3) Cells were treated for 72 h with 10, 15, and 25 µM of the selected substances. Control cells were treated with the equivalent in DMSO.
(§4) Cell survival was assessed using the CellTiter Aqueous One Proliferation assay (Promega, Charbonnières-les-Bains, France) whereby 2500 or 5000 cells per well were seeded in 96-well plates in 100 µL. At the end of the treatment, 20 µL of reagent was added, and absorbance readings were taken at 492 nm on a 96-well plate reader after 3 h of contact (on average).

[2] = MTS cell viability assay, MRC-5 cells, 72 h; assay type: cell-based, human; settings: human, MRC-5 fetal lung fibroblast cells, % of viable cells compared to untreated cells 100%
Procedure: as §1, §2, §3, §4

[3] = system: colon carcinoma cells; set-up: method as in PMID 34952432; settings: cited from earlier work
[4] = system: MCF7; settings: Figure 1; cited from earlier work
[5] = system: PC3; settings: earlier studies on mode of action; cited from earlier work
[6] = system: Hsp90 client proteins (HER2, Raf-1 and cdk-4); settings: earlier studies on mode of action; cited from earlier work
[7] = system: MCF-7 breast cancer cell line; settings: earlier studies on mode of action; cited from earlier work
[8] = system: PC-3 cells; test: MTS cell viability / growth inhibition assay, PC-3 cells, 72 h; assay type: cell-based, human; settings: Homo sapiens, PC-3; concentration needed to reduce cell growth by 50%, 72 h treatment; estimated; read-out: GI50 anti-proliferative effect PC-3
Procedure: as §1
Then, the growth inhibitory activities against PC-3 prostate cancer cell line were measured for the selected 3-heteroaryl-quinolin-2(1H)-one derivatives 3a–e.
as §2, §3, §4

melting point: 202 to 203 °C
Structure (SMILES): Cn1c(=O)c(-c2nc3c(-c4ccc(Cl)cc4)ncnc3n2Cc2ccccc2)cc2ccccc21 [4g, 3-[9-benzyl-6-(4-chlorophenyl)-9H-purin-8-yl]-1-methylquinolin-2(1H)-one]
viability at 25 µM [1]: ~30%
viability at 72 h, 15 µM [2]: 71 to 79%

Structure (SMILES): Cn1c(=O)c(NC(=O)c2ccc(OCCCCCCCCCC[P+](c3ccccc3)(c3ccccc3)c3ccccc3)cc2)cc2cc(Br)ccc21.[Br-] [6BrCaQ-C10-TPP]
mitochondrial membrane disruption [3]: significant mitochondrial membrane disruption

GI50 [8]: 10 µM
Structure (SMILES): COc1ccc(C(=O)Nc2cc3cc(Br)ccc3n(C)c2=O)cc1 [6BrCaQ]
IC50 [4]: 7 µM
apoptosis level [5]: high apoptosis level
Hsp90 client proteins (HER2, Raf-1 and cdk-4) [6]: downregulation
apoptosis level [7]: high apoptosis level

Source: PMC8778022, “Synthesis and Biological Activity of 3-(Heteroaryl)quinolin-2(1H)-ones Bis-Heterocycles as Potential Inhibitors of the Protein Folding Machinery Hsp90” (Molecules, 2022)
